According to patent US6838479B2, “Amidine inhibitors of serine proteases” (Genentech, Inc., priority 2000, dated 2005):

Tests used:
[1] = molecular target: tissue factor/factor VIIa (Homo sapiens, UniProt P08709); assay: Tissue Factor/Factor VIIa antagonist assay (chromogenic, Ki); format: biochemical; conditions: 10 nM VIIa, 30 nM TF, Chromozym-tPA 1.33 mM; read-out: binding affinity to serine proteases: VIIa
Method: Tissue Factor/Factor VIIa Antagonist Assay
This procedure is used to determine the constant of inhibition (Ki) for a sample compound of the invention.
Procedure • 1. Prepare a solution of 2 μg/mL (90 nM) tissue factor and 1.5 μg/mL (30 nM) factor VIIa in assay buffer with CaCl2. • 2. Incubate for 15 minutes at room temperature. • 3. Add 50 μL sample to each well. • 4. Add 50 μL tissue factor/factor VIIa solution to each well. • 5. Incubate for 15 minutes at room temperature with gentle agitation. • 6. Add 50 μL substrate to each well. • 7. Agitate plate for 20-25 sec. • 8. Monitor absorbance at 405 nm every 10 see for a total of 5 minutes at room temperature. • 9. Calculate Vmax over 10 points.

[2] = molecular target: T1, human Factor Xa (Homo sapiens, UniProt P00742); assay: Factor Xa assay (chromogenic, Ki); format: biochemical; conditions: 3.3 nM Xa, S-2222 0.5 mM; read-out: binding affinity to serine proteases: Xa
T1 construct: This complex converts factor X to Xa
Method: Factor Xa, Thrombin, and Plasma Kallikrein Assays
These procedures are used to determine the constant of inhibition (Ki) for a sample compound of the invention.
Procedure • 1. Add 50 μL sample to each well. • 2. Add 50 μL appropriately diluted coagulation factor to each well. • 3. Incubate for 5 minutes at room temperature with gentle agitation. • 4. Add 50 μL appropriately diluted substrate to each well. • 5. Agitate plate for 20-25 sec. • 6. Monitor absorbance at 405 nm every 10 sec for a total of 5 minutes at room temperature. • 7. Calculate Vmax over 10 points.

T1 sequence (P00742 235-488 limits assumed): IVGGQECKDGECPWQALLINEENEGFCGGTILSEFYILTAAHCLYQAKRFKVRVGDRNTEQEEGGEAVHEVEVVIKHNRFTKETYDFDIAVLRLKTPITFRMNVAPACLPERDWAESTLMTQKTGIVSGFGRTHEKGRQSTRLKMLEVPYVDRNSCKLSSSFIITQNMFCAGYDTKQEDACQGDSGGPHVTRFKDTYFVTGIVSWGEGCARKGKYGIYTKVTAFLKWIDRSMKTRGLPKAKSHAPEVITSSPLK
T1 sequence (P00742 41-179 limits assumed): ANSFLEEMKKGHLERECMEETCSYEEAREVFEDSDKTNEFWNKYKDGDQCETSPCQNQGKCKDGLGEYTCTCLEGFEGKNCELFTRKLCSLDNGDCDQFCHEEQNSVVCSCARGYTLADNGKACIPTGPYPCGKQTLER
tissue factor/factor VIIa, sequence (P08709 213-466 limits assumed): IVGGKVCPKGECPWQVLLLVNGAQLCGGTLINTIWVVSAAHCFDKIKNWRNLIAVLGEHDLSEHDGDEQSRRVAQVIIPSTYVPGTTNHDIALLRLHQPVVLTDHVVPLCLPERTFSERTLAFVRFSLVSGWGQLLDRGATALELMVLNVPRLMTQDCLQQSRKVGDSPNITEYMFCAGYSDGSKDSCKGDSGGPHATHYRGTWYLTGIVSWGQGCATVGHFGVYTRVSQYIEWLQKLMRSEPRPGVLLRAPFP
tissue factor/factor VIIa, sequence (P08709 61-212 limits assumed): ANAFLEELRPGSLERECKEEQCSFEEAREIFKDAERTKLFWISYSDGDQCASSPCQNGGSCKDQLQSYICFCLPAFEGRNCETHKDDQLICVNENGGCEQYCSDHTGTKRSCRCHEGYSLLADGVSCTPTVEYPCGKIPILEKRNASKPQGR
tissue factor/factor VIIa, sequence (P13726 33-251 partner limits assumed): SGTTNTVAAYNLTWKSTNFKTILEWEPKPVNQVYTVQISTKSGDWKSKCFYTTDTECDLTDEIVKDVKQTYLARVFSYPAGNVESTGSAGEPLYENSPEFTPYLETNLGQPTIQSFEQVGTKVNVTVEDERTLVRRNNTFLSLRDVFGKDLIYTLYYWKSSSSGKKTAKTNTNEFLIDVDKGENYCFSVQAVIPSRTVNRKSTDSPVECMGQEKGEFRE

Compound | Ki [1] [µM] | Ki [2] [µM]
N=C(N)c1ccc(NC(=O)[C@@H]2C[C@@H](Oc3cccc(C(=N)N)c3)CN2)cc1 [compound 2] | 64 | 1.15
COc1ccc(CNC(=O)[C@@H]2C[C@@H](Oc3cccc(C(=N)N)c3)CN2)cc1 [compound 8] | ≥ 390 | 3.32
Cc1ccc(CNC(=O)[C@@H]2C[C@@H](Oc3cccc(C(=N)N)c3)CN2)cc1 [compound 9] | ≥ 390 | 5.13
N=C(N)c1cccc(O[C@H]2CN[C@H](C(=O)N3CCc4ccccc4C3)C2)c1 [compound 10] | 98.5 | 5.35
N=C(N)c1cccc(O[C@H]2CN[C@H](C(=O)NCCC3CNc4ccccc43)C2)c1 (stereo partly drawn) [compound 12] | 156 | 6.02
Cc1cccc(CNC(=O)[C@@H]2C[C@@H](Oc3cccc(C(=N)N)c3)CN2)c1 [compound 13] | ≥ 390 | 6.12
CN1CCN(C(=O)[C@@H]2C[C@@H](Oc3cccc(C(=N)N)c3)CN2)CC1 [compound 18] | 273 | 8.87
N=C(N)c1cccc(O[C@H]2CN[C@H](C(=O)NCc3cccc(Cl)c3)C2)c1 [compound 19] | 312 | 9
N=C(N)c1cccc(O[C@H]2CN[C@H](C(=O)NCc3ccc4ccccc4c3)C2)c1 [compound 20] | 234 | 9.07
COc1ccc(CNC(=O)[C@@H]2C[C@@H](Oc3cccc(C(=N)N)c3)CN2C(C)=O)cc1 [compound 23] | > 195 | 12
N=C(N)c1cccc(O[C@H]2CN[C@H](C(=O)Nc3ccc(C(F)(F)F)cc3)C2)c1 [compound 24] | 312 | 12.9
N=C(N)c1cccc(O[C@H]2CN[C@H](C(=O)NC3CCc4ccccc43)C2)c1 (stereo partly drawn) [compound 25] | 156 | 13.3
C[C@@H](NC(=O)[C@@H]1C[C@@H](Oc2cccc(C(=N)N)c2)CN1)c1ccccc1 [compound 26] | 142 | 
N=C(N)c1cccc(O[C@H]2CN[C@H](C(=O)Nc3ccc(-c4ccccc4)cc3)C2)c1 [compound 28] | ≥ 390 | 14.1
N=C(N)c1cccc(O[C@H]2CN[C@H](C(=O)Nc3ccc4ccccc4c3)C2)c1 [compound 29] | 117 | 14.2
N=C(N)c1cccc(O[C@H]2CN[C@H](C(=O)NCc3ccc(N)cc3)C2)c1 [compound 30] | 312 | 15.2
C=CCNC(=O)[C@@H]1C[C@@H](Oc2cccc(C(=N)N)c2)CN1 [compound 31] | ≥ 390 | 15.2
N=C(N)c1cccc(O[C@H]2CN[C@H](C(=O)Nc3cccc4ccccc34)C2)c1 [compound 33] | 30.5 | 15.5
N#Cc1ccc(NC(=O)[C@@H]2C[C@@H](Oc3cccc(C(=N)N)c3)CN2)cc1 [compound 34] | 156 | 16.8
N=C(N)c1cccc(O[C@H]2CN[C@H](C(=O)N3CCCCC3)C2)c1 [compound 35] | 94 | 19.7
N=C(N)c1cccc(O[C@H]2CN[C@H](C(=O)NCc3ccccc3)C2)c1 [compound 37] | 312 | 21.7

Compound | Ki [1] [µM] | Ki [2] [µM]
N=C(N)c1cccc(O[C@H]2CN[C@H](C(=O)N3CCCC3)C2)c1 [compound 38] | 129 | 21.7
Cc1ccccc1CNC(=O)[C@@H]1C[C@@H](Oc2cccc(C(=N)N)c2)CN1 [compound 39] | ≥ 390 | 22.8
CN(C(=O)[C@@H]1C[C@@H](Oc2cccc(C(=N)N)c2)CN1)c1ccccc1 [compound 40] | 156 | 23
N=C(N)c1cccc(O[C@H]2CN[C@H](C(=O)NCCc3ccccc3)C2)c1 [compound 41] | 187 | 24.3
N#Cc1ccccc1NC(=O)[C@@H]1C[C@@H](Oc2cccc(C(=N)N)c2)CN1 [compound 42] | 89 | 24.4
N=C(N)c1cccc(O[C@H]2CN[C@H](C(=O)Nc3ccccc3C(F)(F)F)C2)c1 [compound 43] | 156 | 24.5
Cc1ccccc1NC(=O)[C@@H]1C[C@@H](Oc2cccc(C(=N)N)c2)CN1 [compound 44] | 117 | 25.9
N=C(N)c1cccc(O[C@H]2CN[C@H](C(=O)Nc3cccc(C(F)(F)F)c3)C2)c1 [compound 45] | 150 | 26.3
C[C@H](NC(=O)[C@@H]1C[C@@H](Oc2cccc(C(=N)N)c2)CN1)c1ccccc1 [compound 46] | 156 | 27
N=C(N)c1cccc(O[C@H]2CN[C@H](C(=O)NCc3ccccn3)C2)c1 [compound 47] | ≥ 390 | 31.4
COc1ccc(CNC(=O)[C@@H]2C[C@@H](Oc3cccc(C(=N)N)c3)CN2S(C)(=O)=O)cc1 [compound 48] | > 195 | 33.6
CCCNC(=O)[C@@H]1C[C@@H](Oc2cccc(C(=N)N)c2)CN1 [compound 49] | ≥ 390 | 33.8
COc1ccc(CNC(=O)[C@@H]2C[C@@H](Oc3cccc(C(=N)N)c3)CN2S(=O)(=O)c2ccccc2)cc1 [compound 50] | > 195 | 34.1
N=C(N)c1cccc(O[C@H]2CN[C@H](C(=O)NC3CCCCC3)C2)c1 [compound 51] | 234 | 
N=C(N)c1cccc(O[C@H]2CN[C@H](C(=O)NCCc3ccccc3)C2)c1 [compound 53] | 133 | 37.1
CC(C)CCNC(=O)[C@@H]1C[C@@H](Oc2cccc(C(=N)N)c2)CN1 [compound 54] | ≥ 390 | 38
N=C(N)c1cccc(O[C@H]2CN[C@H](C(=O)N[C@@H](Cc3ccccc3)C(=O)O)C2)c1 [compound 55] | 273 | 44.9
COc1ccc(CNC(=O)[C@@H]2C[C@@H](Oc3cccc(C(=N)N)c3)CN2C(=O)c2ccccc2)cc1 [compound 56] | > 195 | 47.3
N=C(N)c1cccc(O[C@H]2CN[C@H](C(=O)N3CCC(O)CC3)C2)c1 [compound 57] | 312 | 49.3
N=C(N)c1cccc(O[C@H]2CN[C@H](C(=O)NCc3cccnc3)C2)c1 [compound 58] | ≥ 390 | 50.7
CC(C)NC(=O)[C@@H]1C[C@@H](Oc2cccc(C(=N)N)c2)CN1 [compound 59] | ≥ 390 | 59.8

Compound | Ki [1] [µM] | Ki [2] [µM]
N=C(N)c1cccc(O[C@H]2CN[C@H](C(=O)N3CCCC(C(N)=O)C3)C2)c1 (stereo partly drawn) [compound 61] |  | 62
N=C(N)c1cccc(O[C@H]2CN[C@H](C(=O)N3CCCCC3CCO)C2)c1 (stereo partly drawn) [compound 62] | > 390 | 64.6
N=C(N)c1cccc(O[C@H]2CN[C@H](C(=O)N3CCNCC3)C2)c1 [compound 63] | ≥ 390 | 70
COc1ccc(NC(=O)[C@@H]2C[C@@H](Oc3cccc(C(=N)N)c3)CN2)cc1 [compound 64] | 273 | 70.1
N=C(N)c1cccc(O[C@H]2CN[C@H](C(=O)Nc3ccc(F)cc3)C2)c1 [compound 65] | 30.7 | 70.1
N=C(N)c1cccc(O[C@H]2CN[C@H](C(N)=O)C2)c1 [compound 66] | 78 | 70.1
N=C(N)c1cccc(O[C@H]2CN[C@H](C(=O)N3CCCC(C(=O)O)C3)C2)c1 (stereo partly drawn) [compound 67] | ≥ 390 | 87.7
N=C(N)c1cccc(O[C@H]2CN[C@H](C(=O)N3CCCCC3CO)C2)c1 (stereo partly drawn) [compound 68] | ≥ 390 | 89.6
N=C(N)c1cccc(O[C@H]2CN[C@H](C(=O)N3CCCC(CO)C3)C2)c1 (stereo partly drawn) [compound 69] | 117 | 90.2
N=C(N)c1cccc(O[C@@H]2C[C@@H](C(=O)O)N(Cc3ccccc3)C2)c1 [compound 70] | 156 | 105
N=C(N)c1cccc(O[C@H]2CN[C@H](C(=O)NCc3ccncc3)C2)c1 [compound 71] | ≥ 390 | 105
CC(C)[C@@H](NC(=O)[C@@H]1C[C@@H](Oc2cccc(C(=N)N)c2)CN1)C(=O)O [compound 72] | ≥ 390 | 132
N=C(N)c1cccc(O[C@H]2CN[C@H](C(=O)N[C@@H](CCC(=O)O)C(=O)O)C2)c1 [compound 73] | ≥ 390 | 140
C=CCOC(=O)[C@@H]1C[C@@H](Oc2cccc(C(=N)N)c2)CN1S(=O)(=O)c1ccccc1 [compound 74] | > 195 | 140
C[C@H](NC(=O)[C@@H]1C[C@@H](Oc2cccc(C(=N)N)c2)CN1)C(=O)O [compound 75] | ≥ 390 | 140
N=C(N)c1cccc(O[C@H]2CN[C@H](C(=O)NCC(=O)O)C2)c1 [compound 77] | > 390 | 
C=CCOC(=O)[C@@H]1C[C@@H](Oc2cccc(C(=N)N)c2)CN1S(C)(=O)=O [compound 78] | > 195 | 
CS(=O)(=O)N1C[C@H](Oc2cccc(C(=N)N)c2)C[C@H]1C(=O)O [compound 81] | > 195 | > 175
N=C(N)c1cccc(O[C@@H]2C[C@@H](C(=O)O)N(S(=O)(=O)c3ccccc3)C2)c1 [compound 82] | > 195 | > 175
